From PubChem BioAssay (NCI)
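Protocol summary: plate cells (96-well), add compound at 5 concentrations, incubate 48 h, interpolate endpoints linearly. GI50 = concentration required for 50% inhibition of growth. TGI is the concentration that stops growth completely.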

Tests used:
Assay in all cases: NCI anticancer screen, dose series, 48 h
DMS 114 small cell lung = test system: DMS 114 small cell lung
HOP-18 NSCLC = test system: HOP-18 NSCLC
LXFL 529 NSCLC = test system: LXFL 529 NSCLC
DU-145 prostate = test system: DU-145 prostate
HS 578T breast = test system: HS 578T breast
MCF7 breast = test system: MCF7 breast
MDA-MB-231 breast = test system: MDA-MB-231 breast
T-47D breast = test system: T-47D breast
MDA-MB-435 = test system: MDA-MB-435
NCI/ADR-RES ovarian = test system: NCI/ADR-RES ovarian

## Cc1cccc(C)c1N1C(=O)C(=O)C(c2nc3ccccc3s2)/C(=N/NC(=O)NN)C1=O (stereo unspecified)
DMS 114 small cell lung
  TGI: > 100 µM
HOP-18 NSCLC
  TGI: > 100 µM
LXFL 529 NSCLC
  TGI: > 100 µM

## CCCCCCCCCCCC1CC(=O)NCCCN(C)CCCCN(C)CCCN1C (stereo unspecified)
DMS 114 small cell lung
  TGI: 3.19 µM
HOP-18 NSCLC
  TGI: 3.17 µM
LXFL 529 NSCLC
  TGI: 3.16 µM

## O=C1[C@H]2ON(c3ccccc3)C(c3ccco3)[C@H]2C(=O)N1c1ccc(Cc2ccc(N3C(=O)[C@@H]4ON(c5ccccc5)C(c5ccco5)[C@@H]4C3=O)cc2)cc1 (stereo partly specified)
DMS 114 small cell lung
  TGI: > 100 µM
HOP-18 NSCLC
  TGI: > 100 µM
LXFL 529 NSCLC
  TGI: > 100 µM

## CC(C)[O-].CC(C)[O-].O=c1cccccc1[O-].O=c1cccccc1[O-].[Ti+4]
HOP-18 NSCLC
  GI50: > 100 µM
  TGI: > 100 µM
LXFL 529 NSCLC
  GI50: 31 µM
  TGI: > 100 µM

## CC(C)(C)NCC(COc1ccc([N+](=O)[O-])cc1)OP(c1ccccc1)c1ccccc1 (stereo unspecified)
DMS 114 small cell lung
  TGI: 83.9 µM
LXFL 529 NSCLC
  TGI: > 100 µM

## Cc1ccc2oc(=O)c(-c3ccccc3)nc2c1
HOP-18 NSCLC
  TGI: 84.4 µM

## COc1ccc2[nH]c(-c3ccc(O)cc3)cc(=O)c2c1
DMS 114 small cell lung
  TGI: 1.49 µM
DU-145 prostate
  TGI: > 100 µM
HOP-18 NSCLC
  TGI: > 29.9 µM
HS 578T breast
  TGI: > 100 µM
LXFL 529 NSCLC
  TGI: > 100 µM
MCF7 breast
  TGI: > 100 µM
MDA-MB-231 breast
  TGI: > 100 µM
T-47D breast
  TGI: 79.6 µM

## COc1ccc(-c2c(C3=NCCCN3)nnn2-c2ccc([N+](=O)[O-])cc2)cc1
DMS 114 small cell lung
  TGI: > 100 µM
HOP-18 NSCLC
  TGI: > 100 µM
LXFL 529 NSCLC
  TGI: > 100 µM

## O=C1C2=C(CCC2)Nc2cccc3ncn1c23
DMS 114 small cell lung
  TGI: > 100 µM
HOP-18 NSCLC
  TGI: 64.2 µM
LXFL 529 NSCLC
  TGI: > 100 µM

## N#C/C(=C1\SC(N=Nc2ccc(Cl)cc2)C(=O)N1c1ccccc1)c1nc2ccccc2[nH]1 (stereo unspecified)
LXFL 529 NSCLC
  TGI: > 100 µM

## CCOC(OC1=C(C#N)CCCC1)C(CC)[Se]c1ccccc1 (stereo unspecified)
DMS 114 small cell lung
  TGI: 15.4 µM
HOP-18 NSCLC
  TGI: 54.1 µM
LXFL 529 NSCLC
  TGI: 65.9 µM

## Cc1ccccc1/C=C/C(=O)c1ccccc1
DMS 114 small cell lung
  TGI: 48 µM
LXFL 529 NSCLC
  TGI: 38.6 µM

## CC1(C)CC(=O)C(CC2C(=O)c3ccccc3C2=O)C(=O)C1
DMS 114 small cell lung
  TGI: > 100 µM
HOP-18 NSCLC
  TGI: > 100 µM
LXFL 529 NSCLC
  TGI: > 100 µM

## N#CC(C#N)=c1c2nsnc2c(=C(C#N)C#N)c2nsnc12
DMS 114 small cell lung
  TGI: 3.93 µM
HOP-18 NSCLC
  TGI: 5.09 µM
LXFL 529 NSCLC
  TGI: 2.99 µM

## Cc1c2ccncc2c(C)c2c1[nH]c1ccc(O)c(OCC(F)(F)F)c12
DMS 114 small cell lung
  TGI: 10.7 µM
LXFL 529 NSCLC
  TGI: 15.5 µM

## COC(=O)C1C(=O)N(CCc2c[nH]c3ccccc23)C[C@@H]2CCC(=O)C[C@H]12 (stereo partly specified)
DMS 114 small cell lung
  TGI: > 100 µM
LXFL 529 NSCLC
  TGI: > 100 µM

## Cc1ccc(C)c(N2C(=O)C(=O)C(c3nc4ccccc4s3)C(=Nc3cccc4c(=O)[nH][nH]c(=O)c34)C2=O)c1 (stereo unspecified)
DMS 114 small cell lung
  TGI: > 100 µM
HOP-18 NSCLC
  TGI: > 100 µM
LXFL 529 NSCLC
  TGI: > 100 µM

## O=c1[nH]c2cc([N+](=O)[O-])ccc2nc1/C(=N\Nc1ccccc1)C(O)c1ccc2c(c1)OCO2 (stereo unspecified)
DMS 114 small cell lung
  TGI: > 100 µM
LXFL 529 NSCLC
  TGI: > 100 µM

## Cc1cccc(C)c1N1C(=O)C(=O)C(c2nc3ccccc3s2)C(=Nc2cccc3c(=O)[nH][nH]c(=O)c23)C1=O (stereo unspecified)
HOP-18 NSCLC
  TGI: > 100 µM
LXFL 529 NSCLC
  TGI: > 100 µM

## CC(=O)[CH-]C(=O)c1ccccc1.CC(=O)[CH-]C(=O)c1ccccc1.CC1(C)OCC(C2OC3OC(C)(C)OC3C2[O-])O1.CC[O-].[Ti+4] (stereo unspecified)
HOP-18 NSCLC
  GI50: 21.4 µM
  TGI: 56.5 µM

## Cc1cccc(N(CC(=O)O)S(=O)(=O)c2ccccc2)c1
HOP-18 NSCLC
  TGI: > 100 µM
LXFL 529 NSCLC
  TGI: > 100 µM

## C=CCNC(=O)N(CCC)CCCC(NC(C)=O)C(=O)NCc1ccccc1 (stereo unspecified)
DMS 114 small cell lung
  TGI: > 100 µM
HOP-18 NSCLC
  TGI: > 100 µM
LXFL 529 NSCLC
  TGI: > 100 µM

## c1ccc2[nH]c(CNc3ccc(C4C[Se]N=N4)cc3)nc2c1 (stereo unspecified)
DMS 114 small cell lung
  TGI: 72.6 µM
HOP-18 NSCLC
  TGI: > 100 µM
LXFL 529 NSCLC
  TGI: 67.7 µM

## O=S1CSSC1
DMS 114 small cell lung
  TGI: 19.1 µM
HOP-18 NSCLC
  TGI: > 100 µM
LXFL 529 NSCLC
  TGI: 32.4 µM

## COc1cc(CNc2nc3ccc(C(F)(F)F)cc3nc2-c2ccccc2)cc(OC)c1OC
LXFL 529 NSCLC
  TGI: > 100 µM

## COc1ccccc1NC(=O)/C(=C/c1ccccc1)C(C)=O
DMS 114 small cell lung
  TGI: > 100 µM
HOP-18 NSCLC
  TGI: > 100 µM
LXFL 529 NSCLC
  TGI: > 100 µM

## N.N.N.N.N.O=S(=O)([O-])S(=O)(=O)[O-].[Co+3]
LXFL 529 NSCLC
  GI50: > 100 µM
  TGI: > 100 µM

## CCOC(=O)C1(Cc2ccc3ccccc3c2)CCCCC(=O)N1 (stereo unspecified)
DMS 114 small cell lung
  TGI: 72.9 µM
HOP-18 NSCLC
  TGI: > 100 µM
LXFL 529 NSCLC
  TGI: > 100 µM

## CCCCCCCCCCCCCCCCCCOCC(COCCOCC[N+]1(CCCCCC(=O)[O-])CCCC1)Oc1ncccn1 (stereo unspecified)
DMS 114 small cell lung
  TGI: 7.1 µM
DU-145 prostate
  TGI: 27.2 µM
HOP-18 NSCLC
  TGI: 13.7 µM
HS 578T breast
  TGI: 28.8 µM
MCF7 breast
  TGI: 16.1 µM
MDA-MB-231 breast
  TGI: 21.7 µM
MDA-MB-435
  TGI: 25 µM
NCI/ADR-RES ovarian
  TGI: 24.1 µM
T-47D breast
  TGI: 21.2 µM

## Cc1c(C)c(CC(=O)N2CC2)c(C)c(C)c1CC(=O)N1CC1
DMS 114 small cell lung
  TGI: 24.5 µM
DU-145 prostate
  TGI: 15.8 µM
HOP-18 NSCLC
  TGI: 75.3 µM
HS 578T breast
  TGI: 81.9 µM
LXFL 529 NSCLC
  TGI: 37.9 µM
MCF7 breast
  TGI: 63.4 µM
MDA-MB-231 breast
  TGI: 48.1 µM
MDA-MB-435
  TGI: 33.6 µM
NCI/ADR-RES ovarian
  TGI: 74.4 µM
T-47D breast
  TGI: 80.5 µM

## CC1=NN(C(=O)c2ccncc2)C(=O)C1N=Nc1ccc(F)cc1 (stereo unspecified)
DMS 114 small cell lung
  TGI: > 100 µM
LXFL 529 NSCLC
  TGI: > 100 µM

## N#Cc1c(-c2ccco2)cc(-c2ccccc2)[nH]c1=O
LXFL 529 NSCLC
  TGI: > 100 µM

## C=C1C(=O)C23C(O)C1CC[C@H]2C12CCCC(C)(COC(C)=O)[C@H]1[C@H](O)[C@]3(O)OC2 (stereo partly specified)
DMS 114 small cell lung
  TGI: 4.35 µM
DU-145 prostate
  TGI: 16.2 µM
HOP-18 NSCLC
  TGI: 2.54 µM
HS 578T breast
  TGI: 9.99 µM
LXFL 529 NSCLC
  TGI: 1.69 µM
T-47D breast
  TGI: 9.59 µM

## Cn1c(=O)nc2n(-c3ccc(Cl)c(C(F)(F)F)c3)c3ccccc3nc-2c1=O
DMS 114 small cell lung
  TGI: 40.6 µM
HOP-18 NSCLC
  TGI: > 100 µM
LXFL 529 NSCLC
  TGI: > 100 µM

## C[C@]12C/C(=C/O)C(=O)C(O)=C1CC[C@@H]1C2CC[C@@]2(C)C1CC[C@@H]2O (stereo partly specified)
DMS 114 small cell lung
  TGI: 37.5 µM
HOP-18 NSCLC
  TGI: > 100 µM
LXFL 529 NSCLC
  TGI: 31.7 µM

## CCn1c(-c2nonc2N)nc2ccncc21
DU-145 prostate
  GI50: > 25 µM
  TGI: > 25 µM
HS 578T breast
  GI50: > 25 µM
  TGI: > 25 µM
MCF7 breast
  GI50: > 25 µM
  TGI: > 25 µM
MDA-MB-231 breast
  GI50: > 25 µM
  TGI: > 25 µM
MDA-MB-435
  GI50: > 25 µM
  TGI: > 25 µM
NCI/ADR-RES ovarian
  GI50: > 25 µM
  TGI: > 25 µM
T-47D breast
  GI50: > 25 µM
  TGI: > 25 µM

## CCCCCCC(C)CCCCCCCCCCC(=O)O (stereo unspecified)
DMS 114 small cell lung
  TGI: > 100 µM
HOP-18 NSCLC
  TGI: > 100 µM
LXFL 529 NSCLC
  TGI: > 100 µM

## COC(=O)c1ccc2c(c1)C(=O)c1c-2n(CCCN=[N+]=[N-])c(=O)c2cc([N+](=O)[O-])ccc12
DU-145 prostate
  GI50: 70.9 µM
  TGI: > 100 µM
HS 578T breast
  GI50: 42.6 µM
  TGI: > 100 µM
MCF7 breast
  GI50: > 100 µM
  TGI: > 100 µM
MDA-MB-231 breast
  GI50: 58 µM
  TGI: > 100 µM
MDA-MB-435
  GI50: > 100 µM
  TGI: > 100 µM
NCI/ADR-RES ovarian
  GI50: > 100 µM
  TGI: > 100 µM
T-47D breast
  GI50: > 100 µM
  TGI: > 100 µM

## CN(C)C(=S)Nc1nnc(Nc2ccccc2)s1
HOP-18 NSCLC
  TGI: > 100 µM
LXFL 529 NSCLC
  TGI: > 100 µM

## CC1OC(c2ccc3c(c2O)C(=O)C2=C(C3=O)C3(O)C(=O)CC(C)(O)CC3(O)C=C2)CC(O)C1O (stereo unspecified)
DU-145 prostate
  TGI: 29.1 µM
HS 578T breast
  TGI: 53.2 µM
MCF7 breast
  TGI: 9 µM
MDA-MB-231 breast
  TGI: 6.17 µM
MDA-MB-435
  TGI: > 42.5 µM
NCI/ADR-RES ovarian
  TGI: 51.8 µM
T-47D breast
  TGI: 28.3 µM

## COc1ccc(C2Oc3c(c(O)cc4c3[C@H](c3ccc(O)cc3O)[C@H](O)C(c3ccc(O)c(O)c3)O4)C[C@@H]2O)cc1O (stereo partly specified)
DMS 114 small cell lung
  TGI: > 100 µM
HOP-18 NSCLC
  TGI: > 100 µM
LXFL 529 NSCLC
  TGI: > 100 µM

## COc1c(O)c(OC)c2oc(-c3ccc(O)cc3)c(OC)c(=O)c2c1O
DU-145 prostate
  TGI: > 100 µM
HS 578T breast
  TGI: 57 µM
MCF7 breast
  TGI: > 100 µM
MDA-MB-231 breast
  TGI: > 100 µM
MDA-MB-435
  TGI: > 100 µM
NCI/ADR-RES ovarian
  TGI: > 100 µM
T-47D breast
  TGI: 55.7 µM

## Cc1cc(C)n(C2=NS(=O)(=O)c3ccccc3N2C)n1
DU-145 prostate
  TGI: > 100 µM
HS 578T breast
  TGI: > 100 µM
MCF7 breast
  TGI: > 100 µM
MDA-MB-231 breast
  TGI: > 100 µM
MDA-MB-435
  TGI: > 100 µM
NCI/ADR-RES ovarian
  TGI: > 100 µM
T-47D breast
  TGI: > 100 µM
